Laboratory results as given in patent publication US7049071B2, “Detection of DNA damaging agents” (University of Manchester Institute of Science and Technology, priority 1997, dated 2006).
Where “and” joins values, the source holds several entries; their conditions need not be identical. Equal values may be shown once.

Key:
Assay type in all cases: cell-based, Saccharomyces cerevisiae
RAD54 promoter [1] = experiment: Specificity experiment: GFP reporter induction by agents that delay mitosis; details: transformed cells; concentration that inhibited cell growth to a similar extent to the MMS treatment regime
Excerpt: These experiments involved exposing transformed cells to hydroxyurea and nocodazole which can delay mitosis in different ways. Hydroxyurea interferes with DNA synthesis at two levels: it inhibits ribonucleotide reductase, so limiting the supply of precursors for DNA synthesis, and it inhibits DNA ligase, an enzyme responsible for repairing nicks (single strand breaks) in the DNA backbone. In contrast nocodazole inhibits microtubule formation and thus primarily arrests cell growth by preventing the normal segregation of chromosomes during mitosis.

RAD54 promoter [2] = experiment: Fluorescence assay of yeast transformed with pWDH443 or pWDH444 (RAD54 promoter linked to S65T GFP), whole cells or cell extracts
Procedure: Light emitted by GFP at 511 nm (after excitation at 488 nm) from yeast cells transformed with pWDH443 and pWDH444 and expressing GFP was measured in a fluorimeter in the absence (controls) or presence of compounds known to induce DNA damage such as Methyl Methane Sulphonate (MMS). Samples were assayed as whole cells or as cell extracts.
Yeast strains Y485 and Y486 in haploid form or Y485/486 in diploid form were in this Example (see above).
A stationary phase culture of cells grown in SD medium was used as the inoculum source. Aliquots (30 μl) of cells were inoculated into 3 ml of SD in 15 ml test tubes. […] The tubes were incubated at 25° C. for 16 h on an orbital shaker at 120 rpm, then transferred to an ice-box whilst maintaining agitation. The cells were then transferred to 1.5 ml eppendorf tubes, harvested by centrifugation (10 s), washed twice in sterile distilled water, and resuspended in 250 μl extraction buffer.
(§1) For whole cell fluorescent measurements, the washed cells were transferred directly to cuvettes containing 2.75 ml sterile distilled water.
For cell extract studies, 100μl of 400–600nm diameter glass beads were added to the tubes of cells which were then placed in a BIO 101 Fastprep FP120 to mechanically disrupt the cells. Following centrifugation for 30 s, the supernatant was transferred to a clean tube. The pellet of beads was washed in a further 250 μl of extraction buffer and this was added to the supernatant from the previous extraction. 200 μl of the pooled extract in 300 μl of water was then transferred to a cuvette.
Fluorescence measurements were performed with a Perkin Elmer LS50 Fluorescence Spectrometer. The excitation and emission wavelengths were set to 488nm and 511 nm, respectively, with a slit width of 10 nm. To correct for variations in cell number/protein extraction efficiency, light absorption was recorded for each cuvette at either 600 nm (for whole cells) or 280 nm (for extracts). The fluorescence values obtained from the fluorometer were then divided by the absorption readings to give the “brightness value”, an arbitrary unit independent of sample concentration. Other data handling details are dealt with either in the text or in the […]

RAD54 promoter [3] = experiment: Whole cell GFP fluorescence of FF18984 transformed with yEGFP-444 or pWDH444; details: for Brightness (BU) + MMS, average: average of three; for Brightness (BU) + MMS: single measurements
Procedure: A stationary phase culture of cells grown in SD medium was used as the inoculum source. Aliquots (30 μl) of cells were inoculated into 3 ml of SD in 15 ml test tubes. Half of the tubes were then supplemented with 0.01% MMS (the remaining tubes left as controls). The tubes were incubated at 25° C. for 16 h on an orbital shaker at 120 rpm, then transferred to an ice-box whilst maintaining agitation. The cells were then transferred to 1.5 ml eppendorf tubes, harvested by centrifugation (10 s), washed twice in sterile distilled water, and resuspended in 250 μl extraction buffer.
as §1
Fluorescence measurements were performed with a Perkin Elmer LS50 Fluorescence Spectrometer. The excitation and emission wavelengths were set to 488nm and 511 nm, respectively, with a slit width of 10 nm. To correct for variations in cell number/protein extraction efficiency, light absorption was recorded for each cuvette at either 600 nm (for whole cells) or 280 nm (for extracts). The fluorescence values obtained from the fluorometer were then divided by the absorption readings to give the “brightness value”, an arbitrary unit independent of sample concentration. Other data handling details are dealt with either in the text or in the
The assessment of GFP fluorescence in whole cells was performed essentially as described in 1.2 (above).

RAD54 promoter [4] = experiment: Western blot of yeast protein extracts with anti-GFP antibody; details: yeast cells transformed with pWDH443 or pWDH444, induced with MMS
Excerpt: Protein extracts from untransformed yeast cells and yeast cells transformed with both pWDH443 and pWDH444 were used in a Western blot analysis using anti-GFP antibody. GFP was not detected in untransformed cells and was only detected at low levels in uninduced transformed cells.

[5] = FF18984 transformed with pWDH444, whole cells
[6] = FF18984 transformed with yEGFP-444, whole cells

SMILES | Induction of the GFP reporter gene (RAD54 promoter [1]) | Time after induction at which fluorescence began to increase (RAD54 promoter [2]; 0.05% MMS) | Change in fluorescence (FIG. 10) (RAD54 promoter [2]; haploid Y486 transfected with pWDH444, cell extracts, 0.02% MMS) | Change in fluorescence (FIG. 10) (RAD54 promoter [2]; haploid Y486 transfected with pWDH444, cell extracts, 0.05% MMS) | Change in brightness relative to untransformed cells also exposed to MMS (FIG. 7) (RAD54 promoter [2]; pWDH443 transformed yeast Y485, Y486 and diploid Y485/486) | Change in fluorescence (RAD54 promoter [2]; pWDH443 transformed yeast Y485, Y486 and diploid Y485/486, 0.002% MMS) | Change in fluorescence (RAD54 promoter [2]; pWDH443 transformed yeast Y485, Y486 and diploid Y485/486, 0.01% MMS) | Change in fluorescence (FIG. 10) (RAD54 promoter [2]; untransformed Y486 cells, 0.02% MMS) | Change in fluorescence (FIG. 10) (RAD54 promoter [2]; untransformed Y486 cells, 0.05% MMS) | Brightness (BU) + MMS, average (RAD54 promoter [3]; [5]) | Brightness (BU) + MMS (RAD54 promoter [3]; [5]) | Brightness (BU) + MMS, average (RAD54 promoter [3]; [6]) | Brightness (BU) + MMS (RAD54 promoter [3]; [6]) | GFP antibody binding in Western blot (RAD54 promoter [4])
COC(=O)Nc1nc2ccc(C(=O)c3cccs3)cc2[nH]1 [nocodazole] | no detectable induction of the GFP reporter gene | – | – | – | – | – | – | – | – | – | – | – | – | –
COS(C)(=O)=O [MMS, Methyl Methane Sulphonate] | – | one | increase in fluorescence | increase in fluorescence | increase in brightness | statistically significant increases in fluorescence | statistically significant increases in fluorescence | no significant effect | no significant effect | average = 49 BU | 45 BU and 54 BU and 48 BU | average = 96.7 BU | 100 BU and 97 BU and 93 BU | considerable increase in GFP antibody binding
NC(=O)NO [hydroxyurea] | no detectable induction of the GFP reporter gene | – | – | – | – | – | – | – | – | – | – | – | – | –
